Source: ChEMBL document CHEMBL1909046, “DrugMatrix in vitro pharmacology data”

How the values were obtained:
[1] = target: T1, Nitric oxide synthase, inducible (Mus musculus, UniProt P29477); parameters: species or system Escherichia coli;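 note: inhibition of iNOS enzyme activity measured with L-arginine as substrate; in other assays of this panel Not Active means under 50% inhibition at 10 µM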
T1 sequence (P29477 whole entry): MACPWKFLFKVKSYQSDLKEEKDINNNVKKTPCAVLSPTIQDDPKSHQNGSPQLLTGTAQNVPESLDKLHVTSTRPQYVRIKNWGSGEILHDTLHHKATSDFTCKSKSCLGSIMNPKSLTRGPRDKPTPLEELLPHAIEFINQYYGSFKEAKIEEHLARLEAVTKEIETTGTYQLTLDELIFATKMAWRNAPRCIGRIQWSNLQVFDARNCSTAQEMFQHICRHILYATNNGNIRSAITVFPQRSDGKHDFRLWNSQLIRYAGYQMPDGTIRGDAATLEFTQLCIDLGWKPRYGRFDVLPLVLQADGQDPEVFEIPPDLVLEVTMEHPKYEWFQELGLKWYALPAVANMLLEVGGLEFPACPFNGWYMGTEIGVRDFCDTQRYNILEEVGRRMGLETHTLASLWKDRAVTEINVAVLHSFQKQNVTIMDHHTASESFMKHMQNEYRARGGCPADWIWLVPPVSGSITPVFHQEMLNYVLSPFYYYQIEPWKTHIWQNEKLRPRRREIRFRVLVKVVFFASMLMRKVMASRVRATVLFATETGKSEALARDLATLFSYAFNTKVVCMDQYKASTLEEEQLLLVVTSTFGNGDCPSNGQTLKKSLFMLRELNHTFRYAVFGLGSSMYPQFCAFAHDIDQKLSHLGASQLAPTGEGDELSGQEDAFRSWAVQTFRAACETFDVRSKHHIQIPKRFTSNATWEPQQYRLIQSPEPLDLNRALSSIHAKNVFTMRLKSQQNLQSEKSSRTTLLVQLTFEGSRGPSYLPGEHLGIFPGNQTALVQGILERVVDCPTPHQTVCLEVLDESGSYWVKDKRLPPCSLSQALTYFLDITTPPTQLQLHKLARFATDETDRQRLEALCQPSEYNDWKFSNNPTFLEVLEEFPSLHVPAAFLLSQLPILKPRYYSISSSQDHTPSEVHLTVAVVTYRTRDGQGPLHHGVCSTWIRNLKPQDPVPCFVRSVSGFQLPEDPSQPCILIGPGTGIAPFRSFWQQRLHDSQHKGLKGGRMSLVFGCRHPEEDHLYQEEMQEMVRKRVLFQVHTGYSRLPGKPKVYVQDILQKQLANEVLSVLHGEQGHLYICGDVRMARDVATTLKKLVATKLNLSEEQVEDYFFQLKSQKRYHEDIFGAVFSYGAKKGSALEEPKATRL

[2] = target: Cytochrome P450 2C9 (Homo sapiens, UniProt P11712); conditions: bti-tn-5b1-4; note: in other assays of this panel Not Active means under 50% inhibition at 10 µM
Cytochrome P450 2C9, sequence (P11712 whole entry): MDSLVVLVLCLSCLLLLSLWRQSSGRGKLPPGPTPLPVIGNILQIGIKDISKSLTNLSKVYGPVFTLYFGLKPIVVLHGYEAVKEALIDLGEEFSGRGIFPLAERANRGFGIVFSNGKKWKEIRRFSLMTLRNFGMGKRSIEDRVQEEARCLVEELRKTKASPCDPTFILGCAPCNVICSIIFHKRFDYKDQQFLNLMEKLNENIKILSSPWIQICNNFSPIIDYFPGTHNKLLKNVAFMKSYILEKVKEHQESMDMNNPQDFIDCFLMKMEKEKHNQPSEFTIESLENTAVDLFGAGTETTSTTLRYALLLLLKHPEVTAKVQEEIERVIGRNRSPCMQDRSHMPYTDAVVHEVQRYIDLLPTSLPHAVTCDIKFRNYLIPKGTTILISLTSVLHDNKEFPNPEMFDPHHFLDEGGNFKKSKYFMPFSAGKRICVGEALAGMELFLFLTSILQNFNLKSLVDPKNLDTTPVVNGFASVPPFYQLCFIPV

[3] = target: T2, Cytochrome P450 2A6 (Homo sapiens, UniProt P11509); conditions: bti-tn-5b1-4; note: in other assays of this panel Not Active means under 50% inhibition at 10 µM
T2 sequence (P11509 whole entry): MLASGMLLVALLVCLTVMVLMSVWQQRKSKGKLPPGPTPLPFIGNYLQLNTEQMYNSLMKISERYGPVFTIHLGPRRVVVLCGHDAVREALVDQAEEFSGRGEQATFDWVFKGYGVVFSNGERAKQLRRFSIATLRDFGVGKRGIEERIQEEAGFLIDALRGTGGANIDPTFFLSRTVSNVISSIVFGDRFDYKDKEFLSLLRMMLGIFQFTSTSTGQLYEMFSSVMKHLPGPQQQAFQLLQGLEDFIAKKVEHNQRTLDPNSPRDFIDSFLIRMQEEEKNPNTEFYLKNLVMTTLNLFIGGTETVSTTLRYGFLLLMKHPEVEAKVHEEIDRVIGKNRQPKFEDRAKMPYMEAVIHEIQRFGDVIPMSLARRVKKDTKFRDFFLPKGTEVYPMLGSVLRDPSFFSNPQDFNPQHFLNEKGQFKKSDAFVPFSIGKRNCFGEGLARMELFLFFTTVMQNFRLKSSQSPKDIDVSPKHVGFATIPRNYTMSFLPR

[4] = target: T3, C-X-C chemokine receptor type 1 (Homo sapiens, UniProt P25024); note: in other assays of this panel Not Active means under 50% inhibition at 10 µM
T3 sequence (P25024 whole entry): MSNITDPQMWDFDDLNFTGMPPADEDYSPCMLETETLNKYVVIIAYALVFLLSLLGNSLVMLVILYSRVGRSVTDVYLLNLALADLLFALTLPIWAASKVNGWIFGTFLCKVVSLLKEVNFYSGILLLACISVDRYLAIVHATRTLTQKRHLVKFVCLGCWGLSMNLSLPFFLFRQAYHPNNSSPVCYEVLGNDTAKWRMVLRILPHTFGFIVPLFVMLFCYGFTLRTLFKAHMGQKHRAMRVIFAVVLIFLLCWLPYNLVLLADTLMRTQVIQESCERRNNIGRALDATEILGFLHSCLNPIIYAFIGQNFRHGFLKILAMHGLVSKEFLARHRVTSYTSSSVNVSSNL

[5] = target: T4, Polyunsaturated fatty acid lipoxygenase ALOX15 (Oryctolagus cuniculus, UniProt P12530); assay: biochemical; assay type: tissue-based, Reticulocytes; conditions: reticulocytes
T4 sequence (P12530 whole entry): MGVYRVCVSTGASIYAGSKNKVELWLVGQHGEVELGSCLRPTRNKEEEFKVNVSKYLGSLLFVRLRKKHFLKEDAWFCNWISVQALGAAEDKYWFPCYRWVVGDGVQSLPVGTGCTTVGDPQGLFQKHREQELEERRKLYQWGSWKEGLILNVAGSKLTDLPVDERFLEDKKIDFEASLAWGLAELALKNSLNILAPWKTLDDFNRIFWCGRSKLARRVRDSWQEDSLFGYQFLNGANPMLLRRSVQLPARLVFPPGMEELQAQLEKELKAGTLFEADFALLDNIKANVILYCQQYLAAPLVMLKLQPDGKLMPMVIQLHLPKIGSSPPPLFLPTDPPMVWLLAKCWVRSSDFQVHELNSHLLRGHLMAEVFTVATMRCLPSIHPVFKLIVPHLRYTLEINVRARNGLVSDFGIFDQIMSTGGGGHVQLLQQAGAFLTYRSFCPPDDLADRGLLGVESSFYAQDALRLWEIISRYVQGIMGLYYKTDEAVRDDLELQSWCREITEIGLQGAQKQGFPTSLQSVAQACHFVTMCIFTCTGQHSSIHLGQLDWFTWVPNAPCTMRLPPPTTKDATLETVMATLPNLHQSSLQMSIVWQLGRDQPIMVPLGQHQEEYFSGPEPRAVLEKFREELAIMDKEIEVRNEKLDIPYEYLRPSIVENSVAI

[6] = DRUGMATRIX: Phosphodiesterase PDE3 enzyme inhibition (substrate: [3H]cAMP + cAMP); assay type: tissue-based, Homo sapiens; conditions: platelet; Not Active = under 50% inhibition at 10 µM
[7] = target: Melanocortin receptor 5 (Homo sapiens, UniProt P33032); assay type: cell membranes, HEK293, Membrane; conditions: hek293; note: in other assays of this panel Not Active means under 50% inhibition at 10 µM
Melanocortin receptor 5, sequence (P33032 whole entry): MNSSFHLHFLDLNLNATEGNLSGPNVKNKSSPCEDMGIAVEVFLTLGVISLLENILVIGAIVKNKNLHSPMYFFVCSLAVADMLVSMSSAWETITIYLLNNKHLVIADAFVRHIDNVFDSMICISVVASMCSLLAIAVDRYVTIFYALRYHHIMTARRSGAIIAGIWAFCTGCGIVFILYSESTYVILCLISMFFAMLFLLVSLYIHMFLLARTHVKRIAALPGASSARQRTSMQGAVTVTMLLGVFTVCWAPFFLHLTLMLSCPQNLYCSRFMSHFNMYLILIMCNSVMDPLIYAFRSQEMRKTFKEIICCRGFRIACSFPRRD

Cc1ccc2cc3c(ccc4ccccc43)c3c2c1CC3 [3-METHYLCHOLANTHRENE]
Not Active: IC50 [1] | IC50 [2] | Ki [2] | IC50 [3] | Ki [3] | IC50 [4] | IC50 [5] | IC50 [6] | Ki [6] | IC50 [7]

CC[C@@]1(O)C[C@H](O[C@H]2C[C@H](N(C)C)[C@H](O[C@H]3C[C@H](O)[C@H](O[C@H]4CCC(=O)[C@H](C)O4)[C@H](C)O3)[C@H](C)O2)c2c(cc3c(c2O)C(=O)c2c(O)cccc2C3=O)[C@H]1C(=O)OC [ACLARUBICIN]
Not Active: IC50 [1] | IC50 [2] | Ki [2] | IC50 [3] | Ki [3] | IC50 [4] | IC50 [5] | IC50 [6] | Ki [6] | IC50 [7]

Nc1nc2c(ncn2COCCO)c(=O)[nH]1 [ACYCLOVIR]
Not Active: IC50 [1] | IC50 [2] | Ki [2] | IC50 [3] | Ki [3] | IC50 [4] | IC50 [5] | IC50 [6] | Ki [6] | IC50 [7]

Cc1c(C)c2c(c(C)c1O)CC[C@@](C)(CCC[C@H](C)CCC[C@H](C)CCCC(C)C)O2 [ALPHA-TOCOPHEROL]
Not Active: IC50 [1] | IC50 [2] | Ki [2] | IC50 [3] | Ki [3] | IC50 [4] | IC50 [5] | IC50 [6] | Ki [6] | IC50 [7]

NCCCCCC(=O)O [AMINOCAPROIC ACID]
Not Active: IC50 [1] | IC50 [2] | Ki [2] | IC50 [3] | Ki [3] | IC50 [4] | IC50 [5] | IC50 [6] | Ki [6] | IC50 [7]

CCC1(c2ccc(N)cc2)CCC(=O)NC1=O (centres undefined) [AMINOGLUTETHIMIDE]
Not Active: IC50 [1] | IC50 [2] | Ki [2] | IC50 [3] | Ki [3] | IC50 [4] | IC50 [5] | IC50 [6] | Ki [6] | IC50 [7]

Cc1ccc(/N=C/N(C)/C=N/c2ccc(C)cc2C)c(C)c1 [AMITRAZ]
Not Active: IC50 [1] | IC50 [2] | Ki [2] | IC50 [3] | Ki [3] | IC50 [4] | IC50 [5] | IC50 [6] | Ki [6] | IC50 [7]

CCOC(=O)C1=C(COCCN)NC(C)=C(C(=O)OC)C1c1ccccc1Cl (centres undefined) [AMLODIPINE]
Not Active: IC50 [1] | IC50 [2] | Ki [2] | IC50 [3] | Ki [3] | IC50 [4] | IC50 [5] | IC50 [6] | Ki [6] | IC50 [7]

COc1ccc(C[C@H]2NC[C@H](O)[C@H]2OC(C)=O)cc1 [ANISOMYCIN]
Not Active: IC50 [1] | Ki [1] | IC50 [2] | Ki [2] | IC50 [3] | Ki [3] | IC50 [4] | Ki [4] | IC50 [5] | Ki [5] | IC50 [6] | Ki [6] | IC50 [7] | Ki [7]

Nc1ncn([C@@H]2O[C@H](CO)[C@@H](O)[C@H]2O)c(=O)n1 [AZACITIDINE]
Not Active: IC50 [1] | IC50 [2] | Ki [2] | IC50 [3] | Ki [3] | IC50 [4] | IC50 [5] | IC50 [6] | Ki [6] | IC50 [7]

CN(C)C(=O)Oc1cc(OC(=O)N(C)C)cc(C(O)CNC(C)(C)C)c1 (centres undefined) [BAMBUTEROL]
Not Active: IC50 [1] | IC50 [2] | Ki [2] | IC50 [3] | Ki [3] | IC50 [4] | IC50 [5] | IC50 [6] | Ki [6] | IC50 [7]

c1ccc2c(c1)c1cccc3ccc4cccc2c4c31 [BENZO[E]PYRENE]
Not Active: IC50 [1] | IC50 [2] | Ki [2] | IC50 [3] | Ki [3] | IC50 [4] | IC50 [5] | IC50 [6] | Ki [6] | IC50 [7]

CNCCc1ccccn1 [BETAHISTINE]
Not Active: IC50 [1] | IC50 [2] | Ki [2] | IC50 [3] | Ki [3] | IC50 [4] | IC50 [5] | IC50 [6] | Ki [6] | IC50 [7]

CC(C)C(Br)C(=O)NC(N)=O (centres undefined) [BROMISOVALUM]
Not Active: IC50 [1] | IC50 [2] | Ki [2] | IC50 [3] | Ki [3] | IC50 [4] | IC50 [5] | IC50 [6] | Ki [6] | IC50 [7]

CCCC1O[C@@H]2C[C@H]3[C@@H]4CCC5=CC(=O)C=C[C@]5(C)[C@H]4[C@@H](O)C[C@]3(C)[C@]2(C(=O)CO)O1 (some centres undefined) [BUDESONIDE]
Not Active: IC50 [1] | IC50 [2] | Ki [2] | IC50 [3] | Ki [3] | IC50 [4] | IC50 [5] | IC50 [6] | Ki [6] | IC50 [7]

CC(NC(C)(C)C)C(=O)c1cccc(Cl)c1 (centres undefined) [BUPROPION]
Not Active: IC50 [1] | IC50 [2] | Ki [2] | IC50 [3] | Ki [3] | IC50 [4] | IC50 [5] | IC50 [6] | Ki [6] | IC50 [7]
